Values after ≈ are worked out from the molar mass of the structure shown. One block for each compound: values may come before it.
Assays:
[1] = particle size distribution of raw material samples; assay type: physicochemical
Text: In the present invention, D50 refers to the particle size corresponding to the cumulative volume distribution percentage of spirocyclic aryl phosphorus oxides or pharmaceutically acceptable salts thereof reaching 50% measured from a small particle size; D90 refers to the particle size corresponding to the cumulative volume distribution percentage of spirocyclic aryl phosphorus oxides or pharmaceutically acceptable salts thereof reaching 90% measured from a small particle size.

[2] = Determination of solubility in buffers at different pHs (saturated solubility by HPLC); assay type: physicochemical; details: for solubility at 24 h: thermodynamic from solid, 37° C.
Protocol: (§1) The solubilities of spirocyclic aryl phosphorus oxides in buffers at different pHs were determined. Nine test samples of 4 mg were each weighed and added to sample bottles of 1.5 mL, and then different solvents (0.1 mol/L HCl, 0.01 mol/L HCl, pH3.5 acetate buffer, pH4.5 acetate buffer, pH5.5 phosphate buffer, pH6.5 phosphate buffer, pH6.8 phosphate buffer, pH7.5 phosphate buffer and water) of 1 mL were added. According to the dissolution, the raw material compounds were continuously added to form a saturated solution. A magneton was added to the saturated solution and then stirred on a magnetic agitator (temperature was 37° C., away from light). After stirring for 24 hours, the samples were taken and centrifuged, and the residual solid samples in the lower layer were tested by X-ray powder diffraction (XRPD). The upper sample was filtered by a filter membrane, the final pH value of the filtrate was measured, and the saturated solubility of the compound was determined by high performance liquid chromatography (HPLC).

[3] = solubility in solvents (description of the substance); assay type: physicochemical
Text: (§2) The solubility of the drug directly influences the dissolution rate of the composition containing the drug, which in turn influences the bioavailability of the pharmaceutical composition. Therefore, how to improve the dissolution rate of pharmaceutical compositions containing spirocyclic aryl phosphorus oxide in solvents other than hydrochloric acid has become an urgent problem to be solved.

[4] = XRPD of residual solid in the solubility test; assay type: physicochemical; details: 24 hrs
Protocol: as §1

[5] = tested on: other related serine, threonine and tyrosine except EGFR wild type; test: kinase selectivity; assay type: biochemical; details: in the detected concentration range
[6] = hygroscopicity (description of the substance); assay type: physicochemical
Text: as §2

Structure (SMILES): COc1cc(N2CCC3(CCN(C)CC3)CC2)ccc1Nc1ncc(Cl)c(Nc2ccccc2P(C)(C)=O)n1 [Sample 3]
- Particle size D10 (μm) [1]: 1.6 μm
- Particle size D50 (μm) [1]: 13.0 μm
- Particle size D90 (μm) [1]: 40.3 μm

Structure (SMILES): COc1cc(N2CCC3(CCN(C)CC3)CC2)ccc1Nc1ncc(Cl)c(Nc2ccccc2P(C)(C)=O)n1 [Sample 1]
- Particle size D10 (μm) [1]: 0.7 μm
- Particle size D50 (μm) [1]: 5.4 μm
- Particle size D90 (μm) [1]: 11.6 μm

Structure (SMILES): COc1cc(N2CCC3(CCN(C)CC3)CC2)ccc1Nc1ncc(Cl)c(Nc2ccccc2P(C)(C)=O)n1 [Sample 2]
- Particle size D10 (μm) [1]: 1.3 μm
- Particle size D50 (μm) [1]: 10.1 μm
- Particle size D90 (μm) [1]: 27.1 μm

Structure (SMILES): COc1cc(N2CCC3(CCN(C)CC3)CC2)ccc1Nc1ncc(Cl)c(Nc2ccccc2P(C)(C)=O)n1 [Sample 5]
- Particle size D10 (μm) [1]: 1.8 μm
- Particle size D50 (μm) [1]: 16.1 μm
- Particle size D90 (μm) [1]: 69 μm

Structure (SMILES): COc1cc(N2CCC3(CCN(C)CC3)CC2)ccc1Nc1ncc(Cl)c(Nc2ccccc2P(C)(C)=O)n1 [Sample 6]
- Particle size D10 (μm) [1]: 2.3 μm
- Particle size D50 (μm) [1]: 18.2 μm
- Particle size D90 (μm) [1]: 79.6 μm

Structure (SMILES): COc1cc(N2CCC3(CCN(C)CC3)CC2)ccc1Nc1ncc(Cl)c(Nc2ccccc2P(C)(C)=O)n1 [Sample 4]
- Particle size D10 (μm) [1]: 5.0 μm
- Particle size D50 (μm) [1]: 23.8 μm
- Particle size D90 (μm) [1]: 62 μm

Results, then the compound that gave them:

- Particle size D10 (μm) [1]: 6.8 μm
- Particle size D50 (μm) [1]: 47.9 μm
- Particle size D90 (μm) [1]: 122 μm
Structure (SMILES): COc1cc(N2CCC3(CCN(C)CC3)CC2)ccc1Nc1ncc(Cl)c(Nc2ccccc2P(C)(C)=O)n1 [Sample 7]

- Dose/solubility (mL, in 60 mg specifications) ([2]; 0.01 mol/L HCl (pH2.02)): 8.69 mL
- Conclusions (solubility class) ([2]; 0.1 mol/L HCl (pH 1.02)): soluble (10 ml to less than 30 ml)
- Dose/solubility (mL, in 60 mg specifications) ([2]; 0.1 mol/L HCl (pH 1.02)): 1.12 mL
- solubility at 24 h ([2]; pH 2.02, simulated gastric fluid, 0.01 mol/L HCl (pH2.02)): 6900 µg/mL (≈ 12.1 mM)
- solubility at 24 h ([2]; pH 3.5 acetate buffer, aqueous buffer, pH 3.5 buffer (pH 3.53), acetate): 279000 µg/mL (≈ 491 mM)
- Dose/solubility (mL, in 60 mg specifications) ([2]; pH 3.5 buffer (pH 3.53)): 0.22 mL
- solubility at 24 h ([2]; pH 4.5 acetate buffer, aqueous buffer, pH 4.5 buffer (pH 4.49), acetate): 108000 µg/mL (≈ 190 mM)
- Dose/solubility (mL, in 60 mg specifications) ([2]; pH 4.5 buffer (pH 4.49)): 0.56 mL
- Dose/solubility (mL, in 60 mg specifications) ([2]; pH 5.5 buffer (pH 5.47)): 8.45 mL
- solubility at 24 h ([2]; pH 5.5 phosphate buffer, aqueous buffer, pH 5.5 buffer (pH 5.47), phosphate): 7100 µg/mL (≈ 12.5 mM)
- Dose/solubility (mL, in 60 mg specifications) ([2]; pH 6.5 buffer (pH 6.45)): 5.41 mL
- solubility at 24 h ([2]; pH 6.5 phosphate buffer, aqueous buffer, pH 6.5 buffer (pH 6.45), phosphate): 11100 µg/mL (≈ 19.5 mM)
- Dose/solubility (mL, in 60 mg specifications) ([2]; pH 6.8 buffer (pH 6.83)): 16.67 mL
- solubility at 24 h ([2]; pH 6.8 phosphate buffer, aqueous buffer, pH 6.8 buffer (pH 6.83), phosphate): 3600 µg/mL (≈ 6.33 mM)
- Dose/solubility (mL, in 60 mg specifications) ([2]; pH 7.5 buffer (pH 7.53)): 70.59 mL
- solubility at 24 h ([2]; pH 7.5 phosphate buffer, aqueous buffer, pH 7.5 buffer (pH 7.53), phosphate): 850 µg/mL (≈ 1.49 mM)
- solubility at 24 h ([2]; simulated gastric fluid, 0.1 mol/L HCl (pH 1.02)): 53400 µg/mL (≈ 93.8 mM)
- solubility at 24 h ([2]; water (pH 6.33)): 60 µg/mL (≈ 0.105 mM)
- Dose/solubility (mL, in 60 mg specifications) ([2]; water (pH 6.33)): >250 mL
- solubility ([3]; 1 mol/L hydrochloric acid solution): easily soluble
- solubility ([3]; 1 mol/L sodium hydroxide solution): practically insoluble, or insoluble
- solubility ([3]; acetonitrile): slightly soluble
- solubility ([3]; dichloromethane): easily soluble
- solubility ([3]; ethanol): slightly soluble
- solubility ([3]; methanol): sparingly soluble
- solubility ([3]; water): slightly soluble
- XRPD (crystal form of residual solid) ([4]; 0.01 mol/L HCl (pH2.02)): no change
- XRPD (crystal form of residual solid) ([4]; 0.1 mol/L HCl (pH 1.02)): no change
- XRPD (crystal form of residual solid) ([4]; pH 3.5 buffer (pH 3.53)): no change
- XRPD (crystal form of residual solid) ([4]; pH 4.5 buffer (pH 4.49)): no change
- XRPD (crystal form of residual solid) ([4]; pH 5.5 buffer (pH 5.47)): no change
- XRPD (crystal form of residual solid) ([4]; pH 6.5 buffer (pH 6.45)): no change
- XRPD (crystal form of residual solid) ([4]; pH 6.8 buffer (pH 6.83)): no change
- XRPD (crystal form of residual solid) ([4]; pH 7.5 buffer (pH 7.53)): no change
- XRPD (crystal form of residual solid) ([4]; water (pH 6.33)): no change
- inhibitory activity to other kinases [5]: Low inhibitory activity
- hygroscopicity [6]: almost no hygroscopicity
Structure (SMILES): COc1cc(N2CCC3(CCN(C)CC3)CC2)ccc1Nc1ncc(Cl)c(Nc2ccccc2P(C)(C)=O)n1 [spirocyclic aryl phosphorus oxide, (2-((5-chloro-2-((2-methoxy-4-(9-methyl-3,9-diazaspiro[5.5]undecan-3-yl)phenyl)amino)pyrimidin-4-yl)amino)phenyl)dimethylphosphine oxide]

- Particle size D10 (μm) [1]: 7.8 μm
- Particle size D50 (μm) [1]: 63.1 μm
- Particle size D90 (μm) [1]: 193 μm
Structure (SMILES): COc1cc(N2CCC3(CCN(C)CC3)CC2)ccc1Nc1ncc(Cl)c(Nc2ccccc2P(C)(C)=O)n1 [Sample 8]

From patent publication US20240216402A1, “PHARMACEUTICAL COMPOSITION, AND PREPARATION METHOD THEREFOR AND APPLICATION THEREOF” (QILU PHARMACEUTICAL CO., LTD., priority 2021, published 2024)
